# “And” between values parts separate entries of the source, which are not always exact repeats. Equal entries are not always repeated. Marks after values point to notes of the source that are not given here.
# How the values were obtained:
# Format in all cases: cell-based
# [1] = system: LC3; assay: LC3 marker assay (LC3-I to LC3-II conversion immunoblot); design: key: −: activity not reported; 0: decreased vs. WT; +: similar to WT; ++: modest increase vs. WT; +++: significant increase vs. WT; details: for Activity (μM) 10, LC3 assay activity: 10 μM; for Activity (μM) 20, LC3 assay activity: 20 μM; for Activity (μM) 30, LC3 assay activity: 30 μM; for Activity (μM) 50, LC3 assay activity: 50 μM; for Activity (μM) 100, LC3 assay activity: 100 μM; for Activity (μM) 10, starred cell, LC3 assay activity: 10 μM marked * (footnote: data taken at 20 instead of 30 μM)
# [2] = system: HeLa cells; assay: Autophagy induction judged by p62 and LC3 immunoblots together; design: key to Activity compared to wild-type WT / Activity (μM) 10, single symbol / Activity (μM) 30, single symbol / Activity (μM) 50, single symbol / Activity (μM) 100, single symbol: −: activity not reported; 0: decreased vs. WT; +: similar to WT; ++: modest increase vs. WT; +++: significant increase vs. WT; details: for Activity (μM) 10, single symbol: 10 μM; for Activity (μM) 30, single symbol: 30 μM; for Activity (μM) 50, single symbol: 50 μM; for Activity (μM) 100, single symbol: 100 μM
# Method: This 10-mer sequence was substituted with various thiol-containing amino acids at various positions, and then cross-linked with various linkers as described above (FIG. 5, a and FIG. 6).
# Cells were treated with peptide in OPTI-MEM (Thermo Scientific) acidified with 0.15% (v/v) 6N HCl for 3 hour. Cells were rinsed with Dulbecco's phosphate buffered saline (PBS) and lysed in lysis buffer (20 mM HEPES, 150 mM NaCl, 1 mM EDTA, 1% Triton X-100, protease inhibitor cocktail (Roche) on ice for 1 hour. Cell lysates were centrifuged at 16,000 g for 10 min at 4° C. and analyzed by SDS-PAGE and transferred to PVDF membranes. The membranes were blocked 5% non-fat dry milk (NFDM) in PBST (PBS+0.05% Tween-20) for 1 hour, then incubated overnight at 4° C. with primary antibody in 5% NFDM in PBST. The blots were washed with PBST and incubated with HRP-conjugated secondary antibodies diluted in 5% NFDM in PBST for 1 hour at room temperature. Membranes were washed with PBST and visualized with SuperSignal West Pico Chemiluminescent Substrate (Thermo Scientific). Semi-quantitative results were obtained by noting the lowest concentration at which both p62 degradation and LC3-I to LC3-II conversion were observed.
# (SEQ ID NO: 16)-Sequence. […] The N-terminus was capped with an acetyl group while the C terminus was capped with a —C(O)—NH2 group. The activity reported is a summation of results from both the p62 degradation assay and the LC3 marker assay.
# [3] = system: p62; assay: p62 degradation assay (p62/actin immunoblot); design: key: −: activity not reported; 0: decreased vs. WT; +: similar to WT; ++: modest increase vs. WT; +++: significant increase vs. WT; details: for Activity (μM) 10, p62/actin assay activity: 10 μM; for Activity (μM) 20, p62/actin assay activity: 20 μM; for Activity (μM) 30, p62/actin assay activity: 30 μM; for Activity (μM) 50, p62/actin assay activity: 50 μM; for Activity (μM) 100, p62/actin assay activity: 100 μM; for Activity (μM) 10, starred cell, p62/actin assay activity: 10 μM marked * (footnote: data taken at 20 instead of 30 μM)
# [4] = Table 3, control vehicle, second symbol of cell
# [5] = Table 4, control inactive Tat-Beclin mutant, second symbol
# [6] = Table 3, control vehicle, second symbol
# [7] = Table 8, control compound T25, second symbol
# [8] = Table 4, starred rows (asterisk not explained)
# [9] = Table 3, control vehicle, first symbol of cell
# [10] = Table 4, control inactive Tat-Beclin mutant, first symbol
# [11] = Table 3, control vehicle, first symbol
# [12] = Table 8, control compound T25, first symbol
# [13] = Table 5, control compound T25, second symbol
# [14] = Table 6, control DMSO, second symbol
# [15] = Table 5, control compound T25, first symbol
# [16] = Table 6, control DMSO, first symbol
sequence,measurement,setting,value
VCNACFHIWH [Compound 3],"Activity (μM) 10, LC3 assay activity",[1]; [4],0/0
same,"Activity (μM) 10, LC3 assay activity",[1]; [5],++
same,"Activity (μM) 20, LC3 assay activity",[1]; [6],+++
same,"Activity (μM) 30, LC3 assay activity",[1]; [5],+++
same,"Activity (μM) 30, LC3 assay activity",[1]; [7],0/0
same,"Activity (μM) 50, LC3 assay activity",[1]; [6],+++
same,"Activity (μM) 50, LC3 assay activity",[1]; [5],+
same,"Activity (μM) 50, LC3 assay activity",[1]; [7],0 and +++/+++
same,"Activity (μM) 100, LC3 assay activity",[1]; [6],+++/+++
same,"Activity (μM) 100, LC3 assay activity",[1]; [5],0/0
same,"Activity (μM) 100, LC3 assay activity",[1]; [7],+++/+++
same,"Activity (μM) 10, starred cell, LC3 assay activity","[1]; Table 8, second symbol",0/0*
same,"Activity (μM) 10, single symbol",[2]; [8],0
same,"Activity (μM) 30, single symbol",[2]; [8],0
same,"Activity (μM) 50, single symbol",[2]; [8],0
same,"Activity (μM) 100, single symbol",[2]; [8],0
same,"Activity (μM) 10, p62/actin assay activity",[3]; [9],0/0
same,"Activity (μM) 10, p62/actin assay activity",[3]; [10],0
same,"Activity (μM) 20, p62/actin assay activity",[3]; [11],+
same,"Activity (μM) 30, p62/actin assay activity",[3]; [10],0
same,"Activity (μM) 30, p62/actin assay activity",[3]; [12],0/0
same,"Activity (μM) 50, p62/actin assay activity",[3]; [11],++
same,"Activity (μM) 50, p62/actin assay activity",[3]; [10],0
same,"Activity (μM) 50, p62/actin assay activity",[3]; [12],+ and +++/+++
same,"Activity (μM) 100, p62/actin assay activity",[3]; [11],+++/+++
same,"Activity (μM) 100, p62/actin assay activity",[3]; [10],0/0
same,"Activity (μM) 100, p62/actin assay activity",[3]; [12],+++/+++
same,"Activity (μM) 10, starred cell, p62/actin assay activity","[3]; Table 8, first symbol",0/0*
VCNATCHIWH [Compound 1],"Activity (μM) 10, LC3 assay activity",[1]; [4],0/0
same,"Activity (μM) 10, LC3 assay activity",[1]; [5],0/0
same,"Activity (μM) 20, LC3 assay activity",[1]; [6],0/0
same,"Activity (μM) 30, LC3 assay activity",[1]; [5],+
same,"Activity (μM) 30, LC3 assay activity",[1]; [7],0/0 and +++
same,"Activity (μM) 50, LC3 assay activity",[1]; [6],0/0
same,"Activity (μM) 50, LC3 assay activity",[1]; [5],++
same,"Activity (μM) 50, LC3 assay activity",[1]; [7],0/0 and +++/+++
same,"Activity (μM) 100, LC3 assay activity",[1]; [6],+
same,"Activity (μM) 100, LC3 assay activity",[1]; [7],+
same,"Activity (μM) 10, starred cell, LC3 assay activity","[1]; Table 8, second symbol",0/0* and +
same,"Activity (μM) 10, single symbol",[2]; [8],0
same,"Activity (μM) 30, single symbol",[2]; [8],0
same,"Activity (μM) 50, single symbol",[2]; [8],0
same,"Activity (μM) 100, single symbol",[2]; [8],0
same,"Activity (μM) 10, p62/actin assay activity",[3]; [9],0/0
same,"Activity (μM) 10, p62/actin assay activity",[3]; [10],0/0
same,"Activity (μM) 20, p62/actin assay activity",[3]; [11],0/0
same,"Activity (μM) 30, p62/actin assay activity",[3]; [10],0
same,"Activity (μM) 30, p62/actin assay activity",[3]; [12],0/0 and ++
same,"Activity (μM) 50, p62/actin assay activity",[3]; [11],0/0
same,"Activity (μM) 50, p62/actin assay activity",[3]; [10],0
same,"Activity (μM) 50, p62/actin assay activity",[3]; [12],0/0 and +++/+++
same,"Activity (μM) 100, p62/actin assay activity",[3]; [11],+++
same,"Activity (μM) 100, p62/actin assay activity",[3]; [10],0
same,"Activity (μM) 100, p62/actin assay activity",[3]; [12],+++
same,"Activity (μM) 10, starred cell, p62/actin assay activity","[3]; Table 8, first symbol",0/0* and 0
VCNATCHIWH [Compound 15],"Activity (μM) 10, LC3 assay activity",[1]; [13],0/0
same,"Activity (μM) 10, LC3 assay activity",[1]; [14],++/++
same,"Activity (μM) 30, LC3 assay activity",[1]; [13],+/+
same,"Activity (μM) 30, LC3 assay activity",[1]; [14],+
same,"Activity (μM) 50, LC3 assay activity",[1]; [13],++/++
same,"Activity (μM) 50, LC3 assay activity",[1]; [14],+
same,"Activity (μM) 100, LC3 assay activity",[1]; [13],+++/+++
same,"Activity (μM) 100, LC3 assay activity",[1]; [14],+
same,"Activity (μM) 10, single symbol",[2]; Table 5,0
same,"Activity (μM) 30, single symbol",[2]; Table 5,+
same,"Activity (μM) 50, single symbol",[2]; Table 5,+++
same,"Activity (μM) 100, single symbol",[2]; Table 5,+++
same,"Activity (μM) 10, p62/actin assay activity",[3]; [15],0/0
same,"Activity (μM) 10, p62/actin assay activity",[3]; [16],++/++
same,"Activity (μM) 30, p62/actin assay activity",[3]; [15],+/+
same,"Activity (μM) 30, p62/actin assay activity",[3]; [16],+++
same,"Activity (μM) 50, p62/actin assay activity",[3]; [15],++/++
same,"Activity (μM) 50, p62/actin assay activity",[3]; [16],+++
same,"Activity (μM) 100, p62/actin assay activity",[3]; [15],+++/+++
same,"Activity (μM) 100, p62/actin assay activity",[3]; [16],+++
VCNATCHIWH [Compound 16],"Activity (μM) 10, LC3 assay activity",[1]; [13],++
same,"Activity (μM) 10, LC3 assay activity",[1]; [14],+
same,"Activity (μM) 30, LC3 assay activity",[1]; [13],++
same,"Activity (μM) 30, LC3 assay activity",[1]; [14],+
same,"Activity (μM) 50, LC3 assay activity",[1]; [13],++
same,"Activity (μM) 50, LC3 assay activity",[1]; [14],+
same,"Activity (μM) 100, LC3 assay activity",[1]; [13],++
same,"Activity (μM) 100, LC3 assay activity",[1]; [14],+
same,"Activity (μM) 10, single symbol",[2]; Table 5,0
same,"Activity (μM) 30, single symbol",[2]; Table 5,+
same,"Activity (μM) 50, single symbol",[2]; Table 5,++
same,"Activity (μM) 100, single symbol",[2]; Table 5,++
same,"Activity (μM) 10, p62/actin assay activity",[3]; [15],0
same,"Activity (μM) 10, p62/actin assay activity",[3]; [16],++
same,"Activity (μM) 30, p62/actin assay activity",[3]; [15],0
same,"Activity (μM) 30, p62/actin assay activity",[3]; [16],+++
same,"Activity (μM) 50, p62/actin assay activity",[3]; [15],0
same,"Activity (μM) 50, p62/actin assay activity",[3]; [16],+++
same,"Activity (μM) 100, p62/actin assay activity",[3]; [15],0
same,"Activity (μM) 100, p62/actin assay activity",[3]; [16],+++
VCNATCHIWH [Compound 17],"Activity (μM) 10, LC3 assay activity",[1]; [13],0
same,"Activity (μM) 10, LC3 assay activity",[1]; [14],++
same,"Activity (μM) 10, LC3 assay activity",[1]; [7],+++
same,"Activity (μM) 30, LC3 assay activity",[1]; [13],0
same,"Activity (μM) 30, LC3 assay activity",[1]; [14],++
same,"Activity (μM) 50, LC3 assay activity",[1]; [13],+
same,"Activity (μM) 50, LC3 assay activity",[1]; [14],++
same,"Activity (μM) 100, LC3 assay activity",[1]; [13],0
same,"Activity (μM) 100, LC3 assay activity",[1]; [14],+
same,"Activity (μM) 30, starred cell, LC3 assay activity","[1]; Table 8, *Data taken at 20 instead of 30 μM, second symbol",+++/+++*
same,"Activity (μM) 10, single symbol",[2]; Table 5,0
same,"Activity (μM) 30, single symbol",[2]; Table 5,++
same,"Activity (μM) 50, single symbol",[2]; Table 5,+++
same,"Activity (μM) 100, single symbol",[2]; Table 5,+++
same,"Activity (μM) 10, p62/actin assay activity",[3]; [15],+++
same,"Activity (μM) 10, p62/actin assay activity",[3]; [16],+
same,"Activity (μM) 10, p62/actin assay activity",[3]; [12],++
same,"Activity (μM) 30, p62/actin assay activity",[3]; [15],++
same,"Activity (μM) 30, p62/actin assay activity",[3]; [16],+++
same,"Activity (μM) 50, p62/actin assay activity",[3]; [15],++
same,"Activity (μM) 50, p62/actin assay activity",[3]; [16],+++
same,"Activity (μM) 100, p62/actin assay activity",[3]; [15],++
same,"Activity (μM) 100, p62/actin assay activity",[3]; [16],+++
same,"Activity (μM) 30, starred cell, p62/actin assay activity","[3]; Table 8, *Data taken at 20 instead of 30 μM, first symbol",+++/+++*
